Data taken from PMC11471595, “Quality by design-based approach for the development of an analytical method for quantifying ponatinib in rat plasma” (Heliyon, 2024).
Where two headings read alike, the source gives them in different places.

Tests used:
[1] = In vivo pharmacokinetic study of ponatinib in rats (plasma by HPLC-FLD, non-compartmental analysis); design: species or system Male SD rats; conditions: male, rat; for half-life: n = 3, read-out: T1/2 (terminal half-life) (converted)
Method: Animal experiments were conducted following the guidelines of the Korea Research Institute of Bioscience and Biotechnology (KRIBB-AEC-20309). Male SD rats (Koatech Inc.; Pyeongtaek, Gyeonggi, Republic of Korea) were acclimated to laboratory conditions for at least one week before experimentation. Animals were permitted ad libitum access to food and water, except during the 8 h fasting period before drug administration; however, water was continuously available.
Rats were administered ponatinib, prepared in a DMAC, cremophor EL, and 20 % HPβCD) in water (10:10:80) for intravenous (IV; 4 mg/kg) and oral administration (7.5 mg/kg). Blood samples (approximately 100 μL) were collected in lithium heparin-treated tubes through the jugular vein at 5, 15, and 30 min, and 1, 3, 6, 12, 24, 36, and 48 h for the IV group (n = 3) and at 30 min and 1, 2, 4, 6, 8, 12, 24, 36, and 48 h post-dose for the oral group (n = 3). The samples were centrifuged at 13,500×g for 10 min at 4 °C. Plasma was stored at −20 °C until analysis.
Plasma ponatinib concentrations were determined using the HPLC-FLD method developed in this study. Pharmacokinetic parameters were calculated using non-compartmental analysis via WinNonlin software (Pharsight Corporation, Mountain View, CA, USA). The key parameters were the area under the plasma concentration-time curve from zero to the last quantifiable time point (AUClast) and infinity (AUCinf), both of which were calculated using the linear trapezoidal method. The terminal half-life (T1/2) was derived from the elimination constant at the terminal phase (λ), and total clearance (CL) and the steady-state volume of distribution (Vss) were calculated. The maximum plasma concentration (Cmax) and time to reach Cmax (Tmax) were obtained directly from the plasma concentration-time graph. The oral bioavailability (F) was determined by dividing the dose-normalized AUCinf value following oral administration by that following IV administration.

[2] = Stability of ponatinib in rat plasma under storage conditions; type: in vitro ADME; conditions: for Stability (%, mean ± SD): n = 3
Method: The stability of ponatinib in rat plasma was determined under various conditions using LQC and HQC samples in triplicate. The stability tests included bench-top exposure at room temperature for 2 h, long-term storage at −20 °C for 3 weeks, three freeze-thaw cycles, and 24-h autosampler storage at 10 °C. The stability of ponatinib was determined by comparing the measured concentrations with nominal values.

## Cc1ccc(C(=O)Nc2ccc(CN3CCN(C)CC3)c(C(F)(F)F)c2)cc1C#Cc1cnc2cccnn12 [ponatinib, Ponatinib]
[1]; SD, PO 7.5 mg/kg vs IV 4 mg/kg, dose-normalized AUCPO/AUCIV × 100, read-out: F (oral bioavailability)
  bioavailability: 48.2 ± 3.9%
[1]; IV 4 mg/kg, mean ± SD, n = 3
  AUC(0-inf): 6140 ± 750 ng·h/mL
  AUC(0-t): 6100 ± 730 ng·h/mL
[1]; IV 4 mg/kg, mean ± SD, n = 3, read-out: CL (total clearance) (converted)
  clearance: 10.9 mL/min/kg
[1]; IV 4 mg/kg, mean ± SD
  half-life: 6.84 ± 0.22 h
[1]; IV 4 mg/kg, mean ± SD, n = 3, read-out: Vss (steady-state volume of distribution)
  Vd: 5.39 ± 0.2 L/kg
[1]; PO 7.5 mg/kg, mean ± SD, n = 3
  AUC(0-inf): 5520 ± 280 ng·h/mL
  AUC(0-t): 5400 ± 270 ng·h/mL
  Cmax: 308 ± 11 ng/mL
  Tmax: 5.34 ± 2.31 h
[1]; PO 7.5 mg/kg, mean ± SD
  half-life: 8.75 ± 0.67 h
[2]; processed rat plasma, autosampler (10 °C for 24 h), HQC 800 ng/mL
  Stability (%, mean ± SD): 95.2 ± 11.1%
[2]; processed rat plasma, autosampler (10 °C for 24 h), LQC 3 ng/mL
  Stability (%, mean ± SD): 93.4 ± 1.3%
[2]; rat plasma, bench top (room temperature for 2 h), HQC 800 ng/mL
  Stability (%, mean ± SD): 91.5 ± 2.1%
[2]; rat plasma, bench top (room temperature for 2 h), LQC 3 ng/mL
  Stability (%, mean ± SD): 108 ± 6%
[2]; rat plasma, freeze-thaw (3 cycles), HQC 800 ng/mL
  Stability (%, mean ± SD): 92.1 ± 5.0%
[2]; rat plasma, freeze-thaw (3 cycles), LQC 3 ng/mL
  Stability (%, mean ± SD): 89.1 ± 7.0%
[2]; rat plasma, long term (−20 °C for 3 weeks), HQC 800 ng/mL
  Stability (%, mean ± SD): 96.4 ± 4.3%
[2]; rat plasma, long term (−20 °C for 3 weeks), LQC 3 ng/mL
  Stability (%, mean ± SD): 93.1 ± 7.9%
[2]; rat plasma, room temperature for 2 h
  Stability, range over LQC and HQC: 91.5 % to 108
